Patent US8679442B2, “Fullerene compositions and methods for photochemical purification” (William Marsh Rice University, priority 2009, dated 2014)

How the values were obtained:
[1] = Photochemically-induced singlet oxygen production, furfuryl alcohol (FFA) degradation under BLB lamps; conditions: 50 μM derivative, 0.5 mM FFA
Procedure: Photochemically-Induced Singlet Oxygen Production from Hexakis-Substituted C60 Fullerene Derivatives. Photochemical generation of singlet oxygen was performed using a magnetically stirred 60 mL cylindrical quartz reactor surrounded by six 4 W black light blue (BLB) lamps (emission wavelength region: 350-400 nm, Philips TL4W) at ambient temperature (22° C.). The incident light intensity was 3.79×10^−4 Einstein·min^−1L^−1. Reaction solutions containing 50 μM of hexakis-substituted C60 fullerene derivatives 1-4 and 0.5 mM furfuryl alcohol (FFA) as an indicator/reactant for singlet oxygen formed were buffered at pH=7 using 10 mM phosphate buffer. Thereafter, the solutions were exposed to the light source. As the photochemical reaction proceeded, 1 mL sample aliquots were periodically withdrawn from the reactor using a syringe, filtered through a 0.22 μm PTFE filter (Millipore), and injected into a 2 mL amber glass vial for further analysis. The residual FFA concentration was quantified using HPLC. […] Generation of singlet oxygen from commercially-available fullerol is presented for comparison purposes.
Table 1 summarizes the initial degradation rate of FFA in the presence of hexakis-substituted C60 fullerene derivatives 1-4 in comparison to commercially available fullerol and Rose Bengal. Initial FFA degradation rates of hexakis-substituted C60 fullerene derivatives 1-4 in the presence of L-histidine and t-butanol are also presented for comparison. […] As shown by the FFA degradation rate, the singlet oxygen production of the C60 fullerene derivatives was greatest for hexakis-substituted C60 fullerene derivative 4 and smallest for hexakis-substituted C60 fullerene derivative 1.

[2] = Triplet-state decay kinetics by laser flash photolysis; assay type: physicochemical; conditions: hexane solution, comparable experimental conditions
Procedure: Measurement of Triplet-State Decay Kinetics in Hexakis-Substituted C60 Fullerene Derivatives. Decay kinetics of the triplet states for the hexakis-substituted C60 derivatives were measured by laser flash photolysis using a 308 nm laser pulse (10-20 mJ with a pulse width of 10 ns). A xenon lamp was used as the monitoring source. […] The test solutions were purged with bubbling argon gas for 15 minutes and then sealed from the atmosphere. Instantaneous generation of the triplet state was induced by laser pulse irradiation with subsequent monitoring between 650 and 770 nm, depending on the specific functional groups present in each hexakis-substituted C60 fullerene derivative.

Initial FFA Degradation Rate, No Scavenger ([1]; pH 7, 10 mM phosphate buffer, BLB 350-400 nm, no scavenger)	Initial FFA Degradation Rate, L-Histidine Scavenger ([1]; pH 7, BLB 350-400 nm, excess L-histidine)	Initial FFA Degradation Rate, t-Butanol Scavenger ([1]; pH 7, BLB 350-400 nm, t-butanol)	triplet state formation [2]	Compound
16.34 ± 0.29	0.07 ± 0.04	16.70 ± 0.47	–	O=C([O-])c1c(Cl)c(Cl)c(Cl)c(Cl)c1-c1c2cc(I)c(=O)c(I)c-2oc2c(I)c([O-])c(I)cc12.[Na+].[Na+] [Rose Bengal]
–	–	–	not detected	c12c3c4c5c1c1c6c7c2c2c8c3c3c9c4c4c%10c5c5c1c1c6c6c%11c7c2c2c7c8c3c3c8c9c4c4c9c%10c5c5c1c1c6c6c%11c2c2c7c3c3c8c4c4c9c5c1c1c6c2c3c41 [C60, Buckminsterfullerene]
